Assay results taken from doi:10.1101/2024.11.03.621781v1 (bioRxiv, 2024).

What was measured:
Assay type in all cases: cell-based
[1] = system: HeLa cells; assay: Autophagy flux assay with Bafilomycin A1, LC3B/LAMP2 double immunofluorescence; details: control cells treated with BafA1
[2] = system: HeLa cells; assay: LC3B lipidation assay by western blot; details: GAPDH loading control
[3] = system: HeLa cells; assay: LC3B immunofluorescence, autophagy induction; details: time-dependent LC3B immunostaining, then return to baseline

CO/C1=C\C(C)=C\[C@@H](C)[C@@H](O)[C@@H](C)C/C(C)=C/C=C/[C@H](OC)[C@@H]([C@@H](C)[C@@H](O)[C@H](C)[C@@]2(O)C[C@@H](O)[C@H](C)[C@@H](C(C)C)O2)OC1=O [BafA1, Bafilomycin A1]
autophagosome accumulation (LC3B puncta) in control cells [1]: marked accumulation of autophagosomes

CO[C@H]1C[C@@H]2CC[C@@H](C)[C@@](O)(O2)C(=O)C(=O)N2CCCC[C@H]2C(=O)O[C@H]([C@H](C)C[C@@H]2CC[C@@H](O)[C@H](OC)C2)CC(=O)[C@H](C)/C=C(\C)[C@@H](O)[C@@H](OC)C(=O)[C@H](C)C[C@H](C)/C=C/C=C/C=C/1C [rapamycin]
LC3B-II/LC3B-I ratio (LC3B lipidation) [2]: increased LC3B- II/LC3B-I ratio | time of peak autophagy induction [3]: 90 min
